Experimental data reported in ChEMBL document CHEMBL4765282, “Design, synthesis and biological evaluation of 1H-pyrazolo [3,4-d]pyrimidine derivatives as PAK1 inhibitors that trigger apoptosis, ER stress and anti-migration effect in MDA-MB-231 cells” (Eur J Med Chem, 2020).
Active and inactive are the calls of the source. The rule behind the calls is not given here.

What was measured:
[1] = Effect on EGR1 gene expression in human MDA-MB-231 cells by Trizol reagent based RNA sequencing analysis relative to control; type: functional
[2] = test system: MDA-MB-231; experiment: Induction of apoptosis in human MDA-MB-231 cells assessed as late apoptotic cells at 40 uM measured after 24 hrs by Annexin V-FITC/propidium iodide staining based flow cytometry (reference value: 0.57%); type: functional
[3] = species on record: Homo sapiens; experiment: Selectivity ratio of IC50 for inhibition of PAK3 (unknown origin) to IC50 for inhibition of PAK1 (unknown origin)
[4] = test system: MDA-MB-231; experiment: Upregulation of phosphorylated PERK Thr980 expression in human MDA-MB-231 cells at 10 to 40 uM measured after 24 hrs by Western blot analysis; type: functional, cell-based; details: dose 10-40 µM
[5] = test system: MDA-MB-231; experiment: Down regulation of PAK1 expression in human MDA-MB-231 cells at 20 uM measured after 24 hrs by immunofluorescence analysis; type: functional, cell-based
[6] = test system: MDA-MB-231; experiment: Induction of apoptosis in human MDA-MB-231 cells assessed as late apoptotic cells at 10 uM measured after 24 hrs by Annexin V-FITC/propidium iodide staining based flow cytometry (reference value: 0.57%); type: functional
[7] = test system: MDA-MB-231; experiment: Upregulation of CHOP expression in human MDA-MB-231 cells at 10 to 40 uM measured after 24 hrs by Western blot analysis; type: functional, cell-based; details: dose 10-40 µM
[8] = test system: MDA-MB-231; experiment: Upregulation of PERK expression in human MDA-MB-231 cells at 10 to 40 uM measured after 24 hrs by Western blot analysis; type: functional, cell-based; details: dose 10-40 µM
[9] = Effect on GARS gene expression in human MDA-MB-231 cells by Trizol reagent based RNA sequencing analysis relative to control; type: functional
[10] = target: T1, Serine/threonine-protein kinase PAK 1 (Homo sapiens, UniProt Q13153); experiment: Inhibition of PAK1 (unknown origin) […] measured after 40 mins by ADP-glo kinase assay
T1 sequence (Q13153 whole entry): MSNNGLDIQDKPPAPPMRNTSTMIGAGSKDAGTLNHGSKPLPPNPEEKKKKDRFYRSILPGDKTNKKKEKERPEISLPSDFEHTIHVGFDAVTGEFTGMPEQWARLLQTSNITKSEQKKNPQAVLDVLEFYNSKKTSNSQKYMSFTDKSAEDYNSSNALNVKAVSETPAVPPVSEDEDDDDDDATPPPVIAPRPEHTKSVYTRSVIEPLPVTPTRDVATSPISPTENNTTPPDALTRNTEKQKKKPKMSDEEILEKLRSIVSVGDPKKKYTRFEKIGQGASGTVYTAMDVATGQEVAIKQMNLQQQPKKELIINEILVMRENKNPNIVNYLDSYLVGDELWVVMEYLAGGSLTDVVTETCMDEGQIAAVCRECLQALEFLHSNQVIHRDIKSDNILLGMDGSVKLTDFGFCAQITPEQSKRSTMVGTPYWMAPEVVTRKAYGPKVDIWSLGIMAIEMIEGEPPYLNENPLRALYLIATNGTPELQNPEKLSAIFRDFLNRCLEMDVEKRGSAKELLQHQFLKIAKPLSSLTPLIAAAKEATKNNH

[11] = Effect on ALPP gene expression in human MDA-MB-231 cells by Trizol reagent based RNA sequencing analysis relative to control; type: functional
[12] = target: Serine/threonine-protein kinase PAK 3 (Homo sapiens, UniProt O75914); experiment: Inhibition of PAK3 (unknown origin) […] measured after 40 mins by ADP-glo kinase assay
Serine/threonine-protein kinase PAK 3, sequence (O75914 whole entry): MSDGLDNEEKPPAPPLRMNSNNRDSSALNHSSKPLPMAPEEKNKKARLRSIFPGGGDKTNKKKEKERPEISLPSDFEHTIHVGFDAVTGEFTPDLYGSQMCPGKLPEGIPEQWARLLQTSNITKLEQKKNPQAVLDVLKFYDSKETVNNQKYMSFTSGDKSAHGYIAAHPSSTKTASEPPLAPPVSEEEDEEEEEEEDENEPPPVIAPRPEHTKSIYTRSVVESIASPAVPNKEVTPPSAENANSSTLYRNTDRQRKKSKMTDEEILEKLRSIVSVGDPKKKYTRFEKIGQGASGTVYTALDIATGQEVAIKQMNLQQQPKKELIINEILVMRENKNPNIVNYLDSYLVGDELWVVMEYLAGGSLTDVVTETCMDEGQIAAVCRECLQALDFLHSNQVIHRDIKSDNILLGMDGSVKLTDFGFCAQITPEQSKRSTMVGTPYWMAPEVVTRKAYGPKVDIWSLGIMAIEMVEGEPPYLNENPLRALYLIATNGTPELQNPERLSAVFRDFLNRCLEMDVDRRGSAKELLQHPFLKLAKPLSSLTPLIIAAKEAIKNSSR

[13] = test system: MDA-MB-231; experiment: Induction of apoptosis in human MDA-MB-231 cells assessed as increase in caspase-3 cleavage at 10 to 40 uM measured after 24 hrs by Western blot analysis; type: functional, cell-based; details: dose 10-40 µM
[14] = test system: MDA-MB-231; experiment: Induction of apoptosis in human MDA-MB-231 cells assessed as down regulation of Bcl-2 expression at 10 to 40 uM measured after 24 hrs by Western blot analysis; type: functional, cell-based; details: dose 10-40 µM
[15] = species on record: Homo sapiens; experiment: Selectivity ratio of IC50 for inhibition of PAK2 (unknown origin) to IC50 for inhibition of PAK1 (unknown origin)
[16] = test system: MDA-MB-231; experiment: Induction of apoptosis in human MDA-MB-231 cells assessed as increase in early apoptosis measured after 24 hrs by Annexin V-FITC/propidium iodide staining based flow cytometry; type: functional, cell-based
[17] = Effect on CTGF gene expression in human MDA-MB-231 cells by Trizol reagent based RNA sequencing analysis relative to control; type: functional
[18] = Effect on MMP3 gene expression in human MDA-MB-231 cells by Trizol reagent based RNA sequencing analysis relative to control; type: functional
[19] = test system: MDA-MB-231; experiment: Up regulation of FOXO3a expression in human MDA-MB-231 cells at 10 to 40 uM measured after 24 hrs by Western blot analysis; type: functional, cell-based; details: dose 10-40 µM
[20] = test system: MDA-MB-231; experiment: Induction of apoptosis in human MDA-MB-231 cells assessed as viable cells at 20 uM measured after 24 hrs by Annexin V-FITC/propidium iodide staining based flow cytometry (reference value: 98.46%); type: functional; details: read-out: Activity
[21] = test system: MDA-MB-231; experiment: Induction of apoptosis in human MDA-MB-231 cells assessed as necrotic cells at 20 uM measured after 24 hrs by Annexin V-FITC/propidium iodide staining based flow cytometry (reference value: 0.16%); type: functional
[22] = test system: MDA-MB-231; experiment: Induction of apoptosis in human MDA-MB-231 cells assessed as early apoptotic cells at 10 uM measured after 24 hrs by Annexin V-FITC/propidium iodide staining based flow cytometry (reference value: 0.81%); type: functional
[23] = Effect on JUN gene expression in human MDA-MB-231 cells by Trizol reagent based RNA sequencing analysis relative to control; type: functional
[24] = test system: MDA-MB-231; experiment: Induction of apoptosis in human MDA-MB-231 cells assessed as early apoptotic cells at 20 uM measured after 24 hrs by Annexin V-FITC/propidium iodide staining based flow cytometry (reference value: 0.81%); type: functional
[25] = Effect on BEX2 gene expression in human MDA-MB-231 cells by Trizol reagent based RNA sequencing analysis relative to control; type: functional
[26] = Effect on STC2 gene expression in human MDA-MB-231 cells by Trizol reagent based RNA sequencing analysis relative to control; type: functional
[27] = target: Serine/threonine-protein kinase PAK 2 (Homo sapiens, UniProt Q13177); experiment: Inhibition of PAK2 (unknown origin) […] measured after 40 mins by ADP-glo kinase assay
Serine/threonine-protein kinase PAK 2, sequence (Q13177 whole entry): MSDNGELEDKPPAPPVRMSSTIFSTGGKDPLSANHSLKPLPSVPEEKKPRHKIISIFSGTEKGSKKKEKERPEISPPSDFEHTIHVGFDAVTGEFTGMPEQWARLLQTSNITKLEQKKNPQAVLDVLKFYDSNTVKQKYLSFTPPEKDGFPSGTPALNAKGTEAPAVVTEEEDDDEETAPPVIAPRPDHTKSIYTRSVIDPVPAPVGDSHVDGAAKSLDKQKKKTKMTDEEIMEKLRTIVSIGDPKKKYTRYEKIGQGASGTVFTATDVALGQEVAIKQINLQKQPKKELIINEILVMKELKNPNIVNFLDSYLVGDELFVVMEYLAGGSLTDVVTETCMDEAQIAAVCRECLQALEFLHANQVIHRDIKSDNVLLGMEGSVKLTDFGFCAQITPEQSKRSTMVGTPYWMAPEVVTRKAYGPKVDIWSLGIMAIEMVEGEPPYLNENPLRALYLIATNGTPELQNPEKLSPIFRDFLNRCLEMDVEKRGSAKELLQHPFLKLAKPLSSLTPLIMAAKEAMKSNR

[28] = target: T1, Serine/threonine-protein kinase PAK 1; experiment: Inhibition of PAK1 phosphorylation at Thr212 residues in human MDA-MB-231 cells at 10 to 40 uM measured after 24 hrs by Western blot analysis; type: cell-based; details: dose 10-40 µM
[29] = Effect on TCP10L gene expression in human MDA-MB-231 cells by Trizol reagent based RNA sequencing analysis relative to control; type: functional
[30] = Effect on DDIT3 gene expression in human MDA-MB-231 cells by Trizol reagent based RNA sequencing analysis relative to control; type: functional
[31] = Effect on CHAC1 gene expression in human MDA-MB-231 cells by Trizol reagent based RNA sequencing analysis relative to control; type: functional
[32] = test system: MDA-MB-231; experiment: Down regulation of JNK expression in human MDA-MB-231 cells at 20 uM measured after 24 hrs by immunofluorescence assay; type: functional, cell-based
[33] = Effect on ASNS gene expression in human MDA-MB-231 cells by Trizol reagent based RNA sequencing analysis relative to control; type: functional
[34] = Effect on HYOU1 gene expression in human MDA-MB-231 cells by Trizol reagent based RNA sequencing analysis relative to control; type: functional
[35] = test system: MDA-MB-231; experiment: Induction of apoptosis in human MDA-MB-231 cells assessed as early apoptotic cells at 40 uM measured after 24 hrs by Annexin V-FITC/propidium iodide staining based flow cytometry (reference value: 0.81%); type: functional
[36] = Effect on KLHDC7B gene expression in human MDA-MB-231 cells by Trizol reagent based RNA sequencing analysis relative to control; type: functional
[37] = test system: MDA-MB-231; experiment: Induction of apoptosis in human MDA-MB-231 cells assessed as necrotic cells at 10 uM measured after 24 hrs by Annexin V-FITC/propidium iodide staining based flow cytometry (reference value: 0.16%); type: functional
[38] = test system: MDA-MB-231; experiment: Induction of apoptosis in human MDA-MB-231 cells assessed as viable cells at 10 uM measured after 24 hrs by Annexin V-FITC/propidium iodide staining based flow cytometry (reference value: 98.46%); type: functional; details: read-out: Activity
[39] = Effect on CDHR4 gene expression in human MDA-MB-231 cells by Trizol reagent based RNA sequencing analysis relative to control; type: functional; details: dose 10-40 µM; time 24 hrs

For `O=C(Nc1cc(C(F)(F)F)cc(C(F)(F)F)c1)NC1CCN(c2ncnc3[nH]ncc23)CC1`, the “fold change (FC)” value [1] was greater than 2, the Activity [2] was 12.06% and the Ratio IC50 [3] was 5. For the same compound, the Activity [4] was “Active”, the Activity [5] was “Active” and the Activity [6] was 3.22%. The Activity [7] was “Active”, the Activity [8] was “Active” and the “fold change (FC)” value [9] was greater than 2. For the same compound, the IC50 [10] was 0.17 µM, the “fold change (FC)” value [11] was greater than 2 and the IC50 [12] was 1.37 µM. The Activity [13] was “Active”, the Activity [14] was “Active” and the Ratio IC50 [15] was 5. For the same compound, the Activity [16] was “Dose-dependent effect”, the “fold change (FC)” value [17] was greater than 2 and the “fold change (FC)” value [18] was greater than 2. The Activity [19] was “Active”, the viability at 20 µM [20] was 77.3% and the Activity [21] was 0.59%. The Activity [22] was 7.16%, the “fold change (FC)” value [23] was greater than 2 and the Activity [24] was 15.2%. For the same compound, the “fold change (FC)” value [25] was greater than 2, the “fold change (FC)” value [26] was greater than 2 and the IC50 [27] was 1.04 µM. For the same compound, the inhibition [28] was “Active”, the “fold change (FC)” value [29] was greater than 2 and the “fold change (FC)” value [30] was greater than 2. For the same compound, the “fold change (FC)” value [31] was greater than 2, the Activity [32] was “inactive” and the “fold change (FC)” value [33] was greater than 2. For the same compound, the “fold change (FC)” value [34] was greater than 2, the Activity [35] was 14.79% and the “fold change (FC)” value [36] was greater than 2. The Activity [37] was 1.64%, the viability at 10 µM [38] was 88% and the “fold change (FC)” value [39] was greater than 2.
